Each compound was assayed against Protein Wnt-3a (Human, UniProt P56704) (assay: WNT pathway reporter gene assay).
Procedure: NIH3T3 mouse fibroblast cells (American Type Culture Collection, Manassas, Va.) were transfected with a plasmid containing a luciferase gene driven by 5 copies of TCF elements. Stale cells selected with 1 μg/mL of Zeocin (Gibco/Invitrogen, Carlsbad, Calif.) are cultured in Dulbecco's modified Eagle's medium (Invitrogen, Carlsbad, Calif.) supplemented with 10% FBS (Invitrogen), 50 unit/mL penicillin and 50 μg/mL of streptomycin (Invitrogen) at 37° C. with 5% CO2 in air atmosphere. […] After 16 hours, the firefly luciferase activities are measured with the Steady-Glo Luciferase Assay System (Promega). The cells were treated with different concentrations of compounds of this invention during the co-culture. […] To normalize for cell quantity and viability, CellTiter Glo assay is next performed in a duplicate plate.

Chain of Protein Wnt-3a (P56704 whole entry): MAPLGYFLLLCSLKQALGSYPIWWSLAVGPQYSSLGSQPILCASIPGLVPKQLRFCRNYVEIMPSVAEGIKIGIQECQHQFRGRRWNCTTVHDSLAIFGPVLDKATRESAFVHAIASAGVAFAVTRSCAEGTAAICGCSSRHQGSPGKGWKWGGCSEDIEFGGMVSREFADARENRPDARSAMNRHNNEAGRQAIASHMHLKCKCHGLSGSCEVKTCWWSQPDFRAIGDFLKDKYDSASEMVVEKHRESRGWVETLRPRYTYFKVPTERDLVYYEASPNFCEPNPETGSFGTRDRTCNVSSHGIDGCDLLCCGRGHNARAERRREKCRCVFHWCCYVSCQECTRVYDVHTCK

Structure (SMILES) | IC50 [nM]
Cc1cc(-c2ccc(CNc3nccc4cc(-c5ccnc(C)c5)ncc34)cc2)ccn1 [US10087181, Compound 1] | < 3
Cc1cc(-c2ccc(CNc3nccc4cc(-c5cnccn5)ncc34)cc2)ccn1 [US10087181, Compound 35] | < 3
Cc1cc(-c2cc3ccnc(NCc4ccc(-c5ccnc(F)c5)c(F)c4)c3cn2)ccn1 [US10087181, Compound 28] | < 3
Cc1cc(-c2ncc(CNc3nccc4cc(-c5cnccn5)ccc34)cc2C)ccn1 [US10087181, Compound 70] | < 3
Cc1cc(-c2cc3ccnc(NCc4ccc(-c5ccnc(C)c5)c(C)c4)c3cn2)ccn1 [US10087181, Compound 2] | < 3

From BindingDB's records for patent US10087181 (Curegenix, 2018)
